Measured values from patent US6383773B2, “Penicillin conversion” (Massachusetts Institute of Technology, priority 1998, dated 2002).

Experiments:
[1] = system: S. clavuligerus NP1 resting cells; experiment: Penicillin G ring expansion by resting cells, paper disc-agar diffusion bioassay (Example 1); type: cell-based; conditions: for DAOG produced: after 3-6 hours of reaction
Experimental: Resting Cells: From a seed culture (in MST), 0.5 ml was transferred to new flasks containing 40 ml of the same medium. Cells were grown at 30° C., 250 rpm for 24 h. Mycelia from each flask were washed twice, and finally, resuspended in 10 ml of distilled water. Four ml of this cell suspension were used in the reaction mixture.
(§1) Ring Expansion Reaction: We defined ring expansion reaction conditions as modifications of the standard reaction mixture for expandase reactions described by Maeda et al. (Maeda et al., Enzyme Microb. Technol. 17:231-34, 1995) except that penicillin G was used a substrate instead of penicillin N. Additions were made following the order established by Shen et al. (Shen et al., Enzyme Microb. Technol. 6:402-404, 1984. Reaction mixtures were incubated in test tubes (cell-free extract) or 250 ml baffled flasks (resting cells) at 220 rpm, 30° C. Reactions containing the protein extract were stopped at various times (see Table 1 and Figure Legends) by mixing 0.5 ml of assay solution with 0.5 ml of methanol. In the case of resting cells, samples were centrifuged to remove cells and supernatants were transferred to new tubes. Expandase activity was detected by paper disc-agar diffusion bioassay.
(§2) Detection of Expandase Activity: As mentioned above, expandase activity was detected by assaying production of a growth-inhibitory zone in a paper disc-agar diffusion bioassay. Paper discs were saturated with 200 μl of the reaction mixture (cell-free extracts or supernatant (resting cells) as follows. Two discs were superimposed and four 50 μl samples were applied. After each application, the discs were allowed to dry for 20 min at 37° C. under a laminar hood and, finally, they were placed on LB (1% tryptone, 0.5% NaCl, 0.5% yeast extract, 0.1% glucose) 0.8% agar medium seeded with E. coli ESS (a β-lactam supersensitive mutant), and the plates were incubated overnight at 37° C. The formation of DAOG and/or other cephalosporin(s) was determined by including 50,000 IU/ml of penicillinase (Difco Bacto penase concentrate, Difco Laboratories, Detroit, Mich.) in the assay plates. This penicillinase is a narrow spectrum β-lactamase that attacks penicillins but not cephalosporins. The diameters of zones of growth inhibition were measured and quantified with a calibration curve using DAOG as standard.

[2] = biological target: T1, S. clavuligerus expandase (Streptomyces clavuligerus, UniProt P18548); experiment: Penicillin ring expansion by cell-free S. clavuligerus expandase extracts, paper disc-agar diffusion bioassay; type: biochemical; conditions: for DAOG: cell-free extract
T1 construct: endogenous in cells; host or cells: S. clavuligerus mutant NP1, crude cell-free extract
T1 sequence (P18548 whole entry, the tested form may be a part): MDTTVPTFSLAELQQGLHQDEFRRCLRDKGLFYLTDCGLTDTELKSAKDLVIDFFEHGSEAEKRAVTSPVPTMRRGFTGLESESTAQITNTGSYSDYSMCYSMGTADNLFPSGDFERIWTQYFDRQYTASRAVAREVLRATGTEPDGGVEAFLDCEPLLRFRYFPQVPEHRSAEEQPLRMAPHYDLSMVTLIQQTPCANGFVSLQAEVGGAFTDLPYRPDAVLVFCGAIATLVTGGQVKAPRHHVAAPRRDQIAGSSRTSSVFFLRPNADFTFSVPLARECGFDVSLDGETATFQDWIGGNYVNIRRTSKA
Experimental: Preparation of Cell-free Extracts: Fermentation broths were centrifuged at 8,000×g and 4° C. for 10 min. Pellets were washed twice using 50 mM Tris-HCI supplemented with 0.1 mM dithiothreitol (DTT). The cells were resuspended in the same buffer and disrupted by four 25-sec. sonication treatments (power setting 5 and duty cycle 50%), in an ice-water bath using a Branson 350 sonifier (Branson Sonic Power Co., Danbury, Conn.). Cell debris was removed by centrifugation (14,000×g, 30 min., 4° C.). The resulting extracts containing 8-10 mg protein/ml were placed on ice and utilized immediately. Protein concentrations were measured using the Bio-Rad protein assay (Bio-Rad, Hercules, Calif.). Bovine serum albumin was used as standard.
as §1, §2
Ring Expansion of Other Penicillins by Cell-free Extracts: We tested our reaction conditions for their ability to support ring expansion on other penicillin substrates and found detectable expansion with each of the 15 substrates that we tested. […] The reactions contained 4 mg/ml extract (protein concentration), 50 mM Tris-HCl pH 7.4, 1.8 mM FeSO4, 1.28 mM α-ketoglutarate, 8 mM MgSO4, 8 mM KCl, 4 mM ascorbic acid, 14 mM DTT, and 2 mg/ml substrate (except for penicillin mX and octanoyl-6-APA, which were used at 3 mg/ml). Samples were centrifuged at 12K rpm for 5 minutes after 2 hours of reaction. 250 μl of reaction mixture was used in each bioassay.

[3] = system: resting S. clavuligerus NP1 cells; experiment: Penicillin G ring expansion by resting cells grown on alcohol (Example 3); type: cell-based

CC1(C)S[C@@H]2[C@H](NC(=O)Cc3ccccc3)C(=O)N2[C@H]1C(=O)O [Penicillin G, penicillin G]
μg DAOG/ml ([1]; resting cells 13 mg/ml dry cell weight, 2 mg/ml penicillin G, 2 h, cofactor omitted: ATP (0.7 mM)): 10.0 μg DAOG/ml
μg DAOG/ml ([1]; resting cells 13 mg/ml dry cell weight, 2 mg/ml penicillin G, 2 h, cofactor omitted: Ascorbic acid (4 mM)): 3.0 μg DAOG/ml
μg DAOG/ml ([1]; resting cells 13 mg/ml dry cell weight, 2 mg/ml penicillin G, 2 h, cofactor omitted: DTT (16 mM)): 15.5 μg DAOG/ml
μg DAOG/ml ([1]; resting cells 13 mg/ml dry cell weight, 2 mg/ml penicillin G, 2 h, cofactor omitted: FeSO4.7H2O (1.8 mM)): 3.2 μg DAOG/ml
μg DAOG/ml ([1]; resting cells 13 mg/ml dry cell weight, 2 mg/ml penicillin G, 2 h, cofactor omitted: KCl (8 mM)): 11.5 μg DAOG/ml
μg DAOG/ml ([1]; resting cells 13 mg/ml dry cell weight, 2 mg/ml penicillin G, 2 h, cofactor omitted: MgSO4.7H2O (8 mM)): 10.1 μg DAOG/ml
μg DAOG/ml ([1]; resting cells 13 mg/ml dry cell weight, 2 mg/ml penicillin G, 2 h, cofactor omitted: None): 10.5 μg DAOG/ml
μg DAOG/ml ([1]; resting cells 13 mg/ml dry cell weight, 2 mg/ml penicillin G, 2 h, cofactor omitted: α-ketoglutarate (1.28 mM)): 3.7 μg DAOG/ml
DAOG produced ([1]; resting cells, Maeda et al. reaction conditions (0.04 mM FeSO4, 0.64 mM α-ketoglutarate)): about 6 μg/ml
DAOG produced ([1]; resting cells, inventive conditions (1.8 mM FeSO4, 1.28 mM α-ketoglutarate)): about 19 μg/ml
DAOG produced relative to complete reaction ([1]; resting cells, two hours, omission of Fe2+, α-ketoglutarate, or ascorbic acid): about 30%
μg DAOG/ml ([1]; resting cells, ATP concentration 0 (mM)): 6.6 μg DAOG/ml
μg DAOG/ml ([1]; resting cells, ATP concentration 0.14 (mM)): 6.4 μg DAOG/ml
μg DAOG/ml ([1]; resting cells, ATP concentration 0.35 (mM)): 6.4 μg DAOG/ml
μg DAOG/ml ([1]; resting cells, ATP concentration 0.7 (mM)): 6.6 μg DAOG/ml
μg DAOG/ml ([1]; resting cells, ATP concentration 2.4 (mM)): 6.6 μg DAOG/ml
μg DAOG/ml ([1]; resting cells, ATP concentration 3.5 (mM)): 4.7 μg DAOG/ml
μg DAOG/ml ([1]; resting cells, Ascorbate concentration 0 (mM)): 2.4 μg DAOG/ml
μg DAOG/ml ([1]; resting cells, Ascorbate concentration 0.8 (mM)): 4.0 μg DAOG/ml
μg DAOG/ml ([1]; resting cells, Ascorbate concentration 2 (mM)): 6.0 μg DAOG/ml
μg DAOG/ml ([1]; resting cells, Ascorbate concentration 4 (mM)): 6.4 μg DAOG/ml
μg DAOG/ml ([1]; resting cells, Ascorbate concentration 8 (mM)): 6.4 μg DAOG/ml
increase of DAOG production ([1]; resting cells, omission of DTT): approximately 50%
Ring expansion, size of zones of inhibition ([2]; 4 mg/ml extract protein, 2 mg/ml substrate (penicillin mX and octanoyl-6-APA 3 mg/ml), 2 hours): Large zones of inhibition
Inhibition Zone Diameter ([2]; 4 mg/ml extract protein, 2 mg/ml substrate, 2 hours of reaction, 250 μl in bioassay (E. coli ESS, penicillinase)): 29 mm
DAOG ([2]; protein 1 mg/ml, FeSO4 0.036 mM, α-ketoglutarate 0.64 mM, penicillin G 0.1 mg/ml): <2 µg/mL
DAOG ([2]; protein 1 mg/ml, FeSO4 0.036 mM, α-ketoglutarate 0.64 mM, penicillin G 0.3 mg/ml): <2 µg/mL
DAOG ([2]; protein 1 mg/ml, FeSO4 0.036 mM, α-ketoglutarate 0.64 mM, penicillin G 1 mg/ml): 2.1 µg/mL
DAOG ([2]; protein 1 mg/ml, FeSO4 1.8 mM, α-ketoglutarate 1.28 mM, penicillin G 0.1 mg/ml): <2 µg/mL
DAOG ([2]; protein 1 mg/ml, FeSO4 1.8 mM, α-ketoglutarate 1.28 mM, penicillin G 0.3 mg/ml): <2 µg/mL
DAOG ([2]; protein 1 mg/ml, FeSO4 1.8 mM, α-ketoglutarate 1.28 mM, penicillin G 1 mg/ml): 2.1 µg/mL
DAOG ([2]; protein 2 mg/ml, FeSO4 0.036 mM, α-ketoglutarate 0.64 mM, penicillin G 0.1 mg/ml): <2 µg/mL
DAOG ([2]; protein 2 mg/ml, FeSO4 0.036 mM, α-ketoglutarate 0.64 mM, penicillin G 0.3 mg/ml): 2.1 µg/mL
DAOG ([2]; protein 2 mg/ml, FeSO4 0.036 mM, α-ketoglutarate 0.64 mM, penicillin G 1 mg/ml): 2.6 µg/mL
DAOG ([2]; protein 2 mg/ml, FeSO4 1.8 mM, α-ketoglutarate 1.28 mM, penicillin G 0.1 mg/ml): 2.1 µg/mL
DAOG ([2]; protein 2 mg/ml, FeSO4 1.8 mM, α-ketoglutarate 1.28 mM, penicillin G 0.3 mg/ml): 2.3 µg/mL
DAOG ([2]; protein 2 mg/ml, FeSO4 1.8 mM, α-ketoglutarate 1.28 mM, penicillin G 1 mg/ml): 3.4 µg/mL
DAOG ([2]; protein 4 mg/ml, FeSO4 0.036 mM, α-ketoglutarate 0.64 mM, penicillin G 0.1 mg/ml): 2.3 µg/mL
DAOG ([2]; protein 4 mg/ml, FeSO4 0.036 mM, α-ketoglutarate 0.64 mM, penicillin G 0.3 mg/ml): 2.6 µg/mL
DAOG ([2]; protein 4 mg/ml, FeSO4 0.036 mM, α-ketoglutarate 0.64 mM, penicillin G 1 mg/ml): 3.4 µg/mL
DAOG ([2]; protein 4 mg/ml, FeSO4 1.8 mM, α-ketoglutarate 1.28 mM, penicillin G 0.1 mg/ml): 2.8 µg/mL
DAOG ([2]; protein 4 mg/ml, FeSO4 1.8 mM, α-ketoglutarate 1.28 mM, penicillin G 0.3 mg/ml): 3.4 µg/mL
DAOG ([2]; protein 4 mg/ml, FeSO4 1.8 mM, α-ketoglutarate 1.28 mM, penicillin G 1 mg/ml): 5.6 µg/mL
penicillin G expansion ([3]; cells grown in MST medium with addition of an alcohol): completely inhibited
Cephalosporin Production Volumetric ([3]; cells grown in MST, 3 hours of reaction, 5.6 mM penicillin G): 5.8 µg/mL
Cephalosporin Production Specific ([3]; cells grown in MST, 3 hours of reaction, 5.6 mM penicillin G, per mg DCW): 1.0 µg/mg
